In patent publication EP4647082A1, “PHARMACEUTICAL COMPOSITION COMPRISING A CGRP RECEPTOR ANTAGONIST FOR THE TREATMENT OF ACUTE MIGRAINE” (NUVIE BIO, Inc., priority 2024, dated 2025):
Where two headings read alike, the source gives them in different places. Marks after values point to notes of the source that are not given here. Bridge positions count the residues as written; N and C are the ends. Square brackets hold non-standard residues; d marks the D form. Peptide text beside a SMILES is read from it. * marks the point of attachment. Phe(2-CONH2) = NC(=O)c1ccccc1C[C@H](N)C(=O)O; Orn(iPr) = CC(C)NCCC[C@H](N)C(=O)O; Oxazole2carbonyl = O=C(c1ncco1)*; 3Pal = N[C@@H](Cc1cccnc1)C(=O)O

Assay: Phase I first-in-human study, pharmacokinetics after single ascending subcutaneous doses in healthy volunteers
Type: in vivo
Settings: for level at 2 h: nominal time 2 h; for level at 3 h: nominal time 3 h; for T10nM: time to 10 nM; for T30nM: time to 30 nM; for T100nM: time to 100 nM
Method: For Phase I clinical studies, the 32 mg/mL pharmaceutical composition was dosed subcutaneously. The Phase I clinical trial was a randomised, double-blind, placebo-controlled, first-in-human study of the safety, tolerability and pharmacokinetics of AXN-001 in healthy volunteers under Protocol No. AXN-001-01 .
The pharmacokinetic objective of the clinical trial was to provide pharmacokinetic analysis of AXN-001 following single ascending subcutaneous doses of AXN-001. The study design included the following Cohorts: • Cohort 1: Dose 1 mg (2 mg/mL formulation); • Cohort 2: Dose 2 mg (4 mg/mL formulation); • Cohort 3: Dose 4 mg (8 mg/mL formulation); • Cohort 4: Dose 8 mg (16 mg/mL formulation); • Cohort 5: Dose 16 mg (32 mg/mL formulation).
Participants were administered a single dose (0.5 mL) of AXN-001 or placebo via subcutaneous (SC) injection into the abdomen. Blood samples were collected at specified time points for pharmacokinetic analysis (5,10,15,20,30,45,60 minutes; 2,3,4,6,8,12,24 hours). Individual plasma concentrations of ANX-001 were determined and used for analyses.
Pharmacokinetic (PK) parameters of AXN-001 were determined using Phoenix WinNonlin version 8.3. All concentrations below the limit of quantification (BLQ) were set to zero for the purpose of the PK analysis. All AUC determinations were made using linear trapezoidal method. The following parameters were determined: Cmax Maximum observed concentration. as read directly from the observed data. Tmax Time to maximum concentration T10nM Time to 10 nM T30nM Time to 30 nM T100nM Time to 100 nM AUC0-t Area under the concentration-time curve from time zero to the time of the last measurable concentration, calculated using linear trapezoidal rule AUC0-inf Area under the concentration-time curve from time zero to infinity, calculated using linear trapezoidal rule %AUCextrap The portion of AUC determined by extrapolation t1/2 Apparent terminal elimination half-life CL/F or CL Total apparent body clearance Vz/F or Vz Apparent volume of distribution λz Terminal elimination rate constant

[1] = human, plasma, single SC dose 8 mg, mean, read-out: Plasma Concentration AXN-001
[2] = human, plasma, single SC dose 16 mg, mean
[3] = human, plasma, single SC dose 16 mg, mean, read-out: Plasma Concentration AXN-001

level at 2 h [1]: 136 ng/mL | level at 3 h [1]: 72 ng/mL | level at 4 h (human, plasma, single SC dose 8 mg, nominal time 4 h, mean, read-out: Plasma Concentration AXN-001): 38.7 ng/mL | level at 6 h (human, plasma, single SC dose 8 mg, nominal time 6 h, mean, read-out: Plasma Concentration AXN-001): 13.9 ng/mL | level at 8 h (human, plasma, single SC dose 8 mg, nominal time 8 h, mean, read-out: Plasma Concentration AXN-001): 5.8 ng/mL | level at 12 h (human, plasma, single SC dose 8 mg, nominal time 12 h, mean, read-out: Plasma Concentration AXN-001): 0.38 ng/mL | AUC(0-inf) [2]: 1250 ng·h/mL | AUC(0-t) [2]: 1230 ng·h/mL | CL/F [2]: 222 mL/min | Cmax [2]: 381 ng/mL | Tmax [2]: 0.958 h | half-life [2]: 2.8 h | level at 0.08 h (human, plasma, single SC dose 16 mg, nominal time 0.08 h, mean, read-out: Plasma Concentration AXN-001): 27.4 ng/mL | level at 0.17 h (human, plasma, single SC dose 16 mg, nominal time 0.17 h, mean, read-out: Plasma Concentration AXN-001): 83.4 ng/mL | level at 0.25 h (human, plasma, single SC dose 16 mg, nominal time 0.25 h, mean, read-out: Plasma Concentration AXN-001): 139 ng/mL | level at 0.33 h (human, plasma, single SC dose 16 mg, nominal time 0.33 h, mean, read-out: Plasma Concentration AXN-001): 183 ng/mL | level at 0.5 h (human, plasma, single SC dose 16 mg, nominal time 0.50 h, mean, read-out: Plasma Concentration AXN-001): 294 ng/mL | level at 0.75 h (human, plasma, single SC dose 16 mg, nominal time 0.75 h, mean, read-out: Plasma Concentration AXN-001): 355 ng/mL | level at 1 h (human, plasma, single SC dose 16 mg, nominal time 1 h, mean, read-out: Plasma Concentration AXN-001): 380 ng/mL | level at 2 h [3]: 277 ng/mL | level at 3 h [3]: 170 ng/mL | level at 4 h (human, plasma, single SC dose 16 mg, nominal time 4 h, mean, read-out: Plasma Concentration AXN-001): 96.8 ng/mL | level at 6 h (human, plasma, single SC dose 16 mg, nominal time 6 h, mean, read-out: Plasma Concentration AXN-001): 44 ng/mL | level at 8 h (human, plasma, single SC dose 16 mg, nominal time 8 h, mean, read-out: Plasma Concentration AXN-001): 23.7 ng/mL | level at 12 h (human, plasma, single SC dose 16 mg, nominal time 12 h, mean, read-out: Plasma Concentration AXN-001): 9.2 ng/mL | %AUCextrap (single SC dose 1 mg, mean): 5.37% | Vz/F (single SC dose 1 mg, mean): 19.1 L | λz (single SC dose 1 mg, mean): 0.535 h⁻¹ | Plasma Concentration AXN-001 (single SC dose 1 mg, nominal time 0.08 h, mean): 4.96 ng/mL | Plasma Concentration AXN-001 (single SC dose 1 mg, nominal time 0.17 h, mean): 12.8 ng/mL | Plasma Concentration AXN-001 (single SC dose 1 mg, nominal time 0.25 h, mean): 17.9 ng/mL | Plasma Concentration AXN-001 (single SC dose 1 mg, nominal time 0.33 h, mean): 28.5 ng/mL | Plasma Concentration AXN-001 (single SC dose 1 mg, nominal time 0.50 h, mean): 34.8 ng/mL | Plasma Concentration AXN-001 (single SC dose 1 mg, nominal time 0.75 h, mean): 39.3 ng/mL | Plasma Concentration AXN-001 (single SC dose 1 mg, nominal time 4 h, mean): 7.47 ng/mL | Plasma Concentration AXN-001 (single SC dose 1 mg, nominal time 6 h, mean): 2.8 ng/mL | Plasma Concentration AXN-001 (single SC dose 1 mg, nominal time 8 h, mean): 0 ng/mL | Plasma Concentration AXN-001 (single SC dose 1 mg, nominal time 12 h, mean): 0 ng/mL | T10nM (single SC dose 1 mg): 12 min | T30nM (single SC dose 1 mg, marked *, 1 of 6 subjects reached 30nM): 19* min | %AUCextrap (single SC dose 2 mg, mean): 4.98% | Vz/F (single SC dose 2 mg, mean): 24.6 L | λz (single SC dose 2 mg, mean): 0.528 h⁻¹ | Plasma Concentration AXN-001 (single SC dose 2 mg, nominal time 12 h, mean): 0 ng/mL | T10nM (single SC dose 2 mg): 9 min | T30nM (single SC dose 2 mg, marked *, 5 of 6 subjects reached 30nM): 21* min | %AUCextrap (single SC dose 4 mg, mean): 1.82% | Vz/F (single SC dose 4 mg, mean): 23.3 L | λz (single SC dose 4 mg, mean): 0.517 h⁻¹ | T10nM (single SC dose 4 mg): 6 min | T30nM (single SC dose 4 mg): 11 min | T100nM (single SC dose 4 mg, marked *, 2/5 of cohort reached 100nM): 25* min | %AUCextrap (single SC dose 8 mg, mean): 1.58% | Vz/F (single SC dose 8 mg, mean): 28.7 L | λz (single SC dose 8 mg, mean): 0.481 h⁻¹ | T10nM (single SC dose 8 mg): 3 min | T30nM (single SC dose 8 mg): 7 min | T100nM (single SC dose 8 mg): 21 min | %AUCextrap (single SC dose 16 mg, mean): 1.51% | Vz/F (single SC dose 16 mg, mean): 55.3 L | λz (single SC dose 16 mg, mean): 0.292 h⁻¹ | T10nM (single SC dose 16 mg): 3 min | T30nM (single SC dose 16 mg): 7 min | T100nM (single SC dose 16 mg): 17 min
SMILES: CC(C)NCCC[C@@H]1NC(=O)[C@@H](NC(=O)[C@H](Cc2ccccc2C(N)=O)NC(=O)[C@H](NC(=O)c2ncco2)C(C)C)CSSC[C@@H](C(=O)N[C@@H](Cc2cccnc2)C(N)=O)NC(=O)[C@H](Cc2ccccc2)NC(=O)[C@@H]2CCCN2C(=O)CNC(=O)[C@H](C(C)C)NC(=O)[C@H](CC(=O)O)NC1=O [AXN-001, Oxazole-2-carbonyl-D-Val-Phe(2-Cbm)-c(Cys-Orn (iPr)-Asp-Val-Gly-Pro-Phe-Cys)-3Pal-NH2] (Oxazole2carbonyl-[dV][Phe(2-CONH2)]C[Orn(iPr)]DVGPFC[3Pal]-NH2; disulfide 3-10)
free plasma concentration (Figure 5) (within 30 minutes, compared with olcegepant, zavegepant, rimegepant and ubrogepant, consistent up to 120 minutes): much higher increase in free plasma concentration
